Results published in ChEMBL document CHEMBL2375251, “Anticancer activity of novel hybrid molecules containing 5-benzylidene thiazolidine-2,4-dione” (Eur J Med Chem, 2013).
Activity calls are given as the source filed them.

Key:
U-937 [1] = experiment: Induction of apoptosis in human U937 cells assessed as caspase-3-mediated PARP hydrolysis at 1 uM after 6 hrs by Western blot analysis; type: functional, cell-based
MOLT-3 [2] = experiment: Induction of apoptosis in human MOLT3 cells assessed as caspase-3-mediated PARP hydrolysis at 1 uM after 6 hrs by Western blot analysis; type: functional, cell-based
MOLT-3 [3] = experiment: Cytotoxicity against human MOLT3 cells after 4 hrs by MTT assay; type: functional, cell-based; details: for IC50: MOLT-3, 4 h
HL-60 [4] = experiment: Induction of apoptosis in human HL60 cells assessed as caspase9-mediated LEHD-pNA cleavage at 1 uM after 6 hrs by colorimetric assay; type: functional, cell-based
MOLT-3 [5] = experiment: Induction of apoptosis in human MOLT3 cells assessed as caspase9-mediated LEHD-pNA cleavage at 1 uM after 6 hrs by colorimetric assay; type: functional, cell-based
U-937 [6] = experiment: Induction of apoptosis in human U937 cells assessed as procaspase-3 activation at 1 uM after 6 hrs by Western blot analysis; type: functional, cell-based
U-937 [7] = experiment: Cytotoxicity against human U937 cells after 4 hrs by MTT assay; type: functional, cell-based; details: for IC50: U-937, 4 h
HL-60 [8] = experiment: Induction of apoptosis in human HL60 cells assessed as procaspase-7 activation at 1 uM after 6 hrs by Western blot analysis; type: functional, cell-based
HL-60 [9] = experiment: Induction of apoptosis in human HL60 cells assessed as caspase 3/7-mediated DEVD-pNA cleavage at 1 uM after 6 hrs by colorimetric assay; type: functional, cell-based
CCRF-CEM = experiment: Cytotoxicity against human CEM cells after 3 days by Coulter counter analysis; type: functional, cell-based; details: 72 h
U-937 [10] = experiment: Induction of apoptosis in human U937 cells assessed as caspase 3/7-mediated DEVD-pNA cleavage at 1 uM after 6 hrs by colorimetric assay relative to control; type: functional
HL-60 [11] = experiment: Induction of apoptosis in human HL60 cells assessed as procaspase-6 activation at 1 uM after 6 hrs by Western blot analysis; type: functional, cell-based
MOLT-3 [12] = experiment: Induction of apoptosis in human MOLT3 cells assessed as cytochrome c release at 1 uM after 6 hrs by Western blot analysis; type: functional, cell-based
L1210 = experiment: Cytotoxicity against mouse L1210 cells after 2 days by Coulter counter analysis; type: functional, cell-based; details: L1210, 48 h
U-937 [13] = experiment: Induction of apoptosis in human U937 cells assessed as cytochrome c release at 1 uM after 6 hrs by Western blot analysis; type: functional, cell-based
HL-60 [14] = experiment: Induction of apoptosis in human HL60 cells assessed as caspase-3-mediated PARP hydrolysis at 1 uM after 6 hrs by Western blot analysis; type: functional, cell-based
HL-60 [15] = experiment: Induction of apoptosis in human HL60 cells assessed as caspase 8-mediated IETD-pNA cleavage at 1 uM after 6 hrs by colorimetric assay; type: functional, cell-based
U-937 [16] = experiment: Induction of apoptosis in human U937 cells assessed as caspase 8-mediated IETD-pNA cleavage at 1 uM after 6 hrs by colorimetric assay; type: functional, cell-based
HL-60 [17] = experiment: Induction of apoptosis in human HL60 cells assessed as appearance of apoptotic bodies at 1 uM after 6 hrs by Hoechst 33258 staining based fluorescence microscopy; type: functional, cell-based
HeLa = experiment: Cytotoxicity against human HeLa cells after 4 days by Coulter counter analysis; type: functional, cell-based; details: 96 h
HL-60 [18] = experiment: Induction of apoptosis in human HL60 cells assessed as procaspase-9 activation at 1 uM after 6 hrs by Western blot analysis; type: functional, cell-based
MOLT-3 [19] = experiment: Induction of apoptosis in human MOLT3 cells assessed as procaspase-3 activation at 1 uM after 6 hrs by Western blot analysis; type: functional, cell-based
MOLT-3 [20] = experiment: Induction of apoptosis in human MOLT3 cells assessed as chromatin hydrolysis at 1 uM after 6 hrs by agarose gel electrophoresis; type: functional, cell-based
HL-60 [21] = experiment: Induction of apoptosis in human HL60 cells assessed as chromatin hydrolysis at 1 uM after 6 hrs by agarose gel electrophoresis; type: functional, cell-based
HL-60 [22] = experiment: Induction of apoptosis in human HL60 cells assessed as procaspase-8 activation at 1 uM after 6 hrs by Western blot analysis; type: functional, cell-based
MOLT-3 [23] = experiment: Induction of apoptosis in human MOLT3 cells assessed as procaspase-7 activation at 1 uM after 6 hrs by Western blot analysis; type: functional, cell-based
FM3A = experiment: Cytotoxicity against mouse FM3A cells after 2 days by Coulter counter analysis; type: functional, cell-based; details: 48 h
U-937 [24] = experiment: Induction of apoptosis in human U937 cells assessed as chromatin hydrolysis at 1 uM after 6 hrs by agarose gel electrophoresis; type: functional, cell-based
U-937 [25] = experiment: Induction of apoptosis in human U937 cells assessed as hypodiploid DNA content at 3 uM after 6 hrs by propidium iodide staining-based flow cytometry relative to control; type: functional
HL-60 [26] = experiment: Induction of apoptosis in human HL60 cells assessed as cytochrome c release at 1 uM after 6 hrs by Western blot analysis; type: functional, cell-based
MOLT-3 [27] = experiment: Induction of apoptosis in human MOLT3 cells assessed as caspase 3/7-mediated DEVD-pNA cleavage at 1 uM after 6 hrs by colorimetric assay; type: functional, cell-based
U-937 [28] = experiment: Induction of apoptosis in human U937 cells assessed as caspase 3/7-mediated DEVD-pNA cleavage at 1 uM after 6 hrs by colorimetric assay; type: functional, cell-based
MOLT-3 [29] = experiment: Induction of apoptosis in human MOLT3 cells assessed as procaspase-6 activation at 1 uM after 6 hrs by Western blot analysis; type: functional, cell-based
HL-60 [30] = experiment: Induction of apoptosis in human HL60 cells assessed as hypodiploid DNA content at 3 uM after 6 hrs by propidium iodide staining-based flow cytometry relative to control; type: functional
U-937 [31] = experiment: Induction of apoptosis in human U937 cells assessed as caspase9-mediated LEHD-pNA cleavage at 1 uM after 6 hrs by colorimetric assay; type: functional, cell-based
MOLT-3 [32] = experiment: Induction of apoptosis in human MOLT3 cells assessed as procaspase-8 activation at 1 uM after 6 hrs by Western blot analysis; type: functional, cell-based
U-937 [33] = experiment: Induction of apoptosis in human U937 cells assessed as procaspase-6 activation at 1 uM after 6 hrs by Western blot analysis; type: functional, cell-based
HL-60 [34] = experiment: Induction of apoptosis in human HL60 cells assessed as chromatin condensation at 1 uM after 6 hrs by Hoechst 33258 staining based fluorescence microscopy; type: functional, cell-based
U-937 [35] = experiment: Induction of apoptosis in human U937 cells assessed as procaspase-7 activation at 1 uM after 6 hrs by Western blot analysis; type: functional, cell-based
HL-60 [36] = experiment: Cytotoxicity against human HL60 cells after 4 hrs by MTT assay; type: functional, cell-based; details: for IC50: HL-60, 4 h
U-937 [37] = experiment: Induction of apoptosis in human U937 cells assessed as procaspase-8 activation at 1 uM after 6 hrs by Western blot analysis; type: functional, cell-based
HL-60 [38] = experiment: Induction of apoptosis in human HL60 cells assessed as caspase 3/7-mediated DEVD-pNA cleavage at 1 uM after 6 hrs by colorimetric assay relative to control; type: functional
HL-60 [39] = experiment: Induction of apoptosis in human HL60 cells assessed as procaspase-3 activation at 1 uM after 6 hrs by Western blot analysis; type: functional, cell-based
U-937 [40] = experiment: Induction of apoptosis in human U937 cells assessed as appearance of apoptotic bodies at 1 uM after 6 hrs by Hoechst 33258 staining based fluorescence microscopy; type: functional, cell-based
MOLT-3 [41] = experiment: Induction of apoptosis in human MOLT3 cells assessed as procaspase-9 activation at 1 uM after 6 hrs by Western blot analysis; type: functional, cell-based
U-937 [42] = experiment: Induction of apoptosis in human U937 cells assessed as procaspase-9 activation at 1 uM after 6 hrs by Western blot analysis; type: functional, cell-based
MOLT-3 [43] = experiment: Induction of apoptosis in human MOLT3 cells assessed as caspase 8-mediated IETD-pNA cleavage at 1 uM after 6 hrs by colorimetric assay; type: functional, cell-based
U-937 [44] = experiment: Induction of apoptosis in human U937 cells assessed as chromatin condensation at 1 uM after 6 hrs by Hoechst 33258 staining based fluorescence microscopy; type: functional, cell-based
MOLT-3 [45] = experiment: Induction of apoptosis in human MOLT3 cells assessed as caspase 3/7-mediated DEVD-pNA cleavage at 1 uM after 6 hrs by colorimetric assay relative to control; type: functional

C=C(Br)C(=O)Nc1cccc(/C=C2\SC(=O)N(Cc3ccccc3)C2=O)c1
510 nM: IC50 (CCRF-CEM)
1400 nM: IC50 (HeLa)
>2: fold change (FC) (MOLT-3 [45])
6: fold change (FC) (U-937 [25])
inactive: Activity (MOLT-3 [20])
12: fold change (FC) (HL-60 [30])
620 nM: IC50 (U-937 [7])
810 nM: IC50 (FM3A)
active: Activity (U-937 [1]) | Activity (MOLT-3 [2]) | Activity (MOLT-3 [3]) Dose-dependent effect | Activity (HL-60 [4]) | Activity (MOLT-3 [5]) | Activity (U-937 [6]) | Activity (U-937 [7]) Dose-dependent effect | Activity (HL-60 [8]) | Activity (HL-60 [9]) | Activity (HL-60 [11]) | Activity (MOLT-3 [12]) | Activity (U-937 [13]) | Activity (HL-60 [14]) | Activity (HL-60 [15]) | Activity (U-937 [16]) | Activity (HL-60 [17]) | Activity (HL-60 [18]) | Activity (MOLT-3 [19]) | Activity (HL-60 [21]) | Activity (HL-60 [22]) | Activity (MOLT-3 [23]) | Activity (U-937 [24]) | Activity (HL-60 [26]) | Activity (MOLT-3 [27]) | Activity (U-937 [28]) | Activity (MOLT-3 [29]) | Activity (U-937 [31]) | Activity (MOLT-3 [32]) | Activity (U-937 [33]) | Activity (HL-60 [34]) | Activity (U-937 [35]) | Activity (HL-60 [36]) Dose-dependent effect | Activity (U-937 [37]) | Activity (HL-60 [39]) | Activity (U-937 [40]) | Activity (MOLT-3 [41]) | Activity (U-937 [42]) | Activity (MOLT-3 [43]) | Activity (U-937 [44])
>10: fold change (FC) (U-937 [10])
380 nM: IC50 (L1210)
600 nM: IC50 (MOLT-3 [3])
690 nM: IC50 (HL-60 [36])
>5: fold change (FC) (HL-60 [38])

C=C(Br)C(=O)Nc1cccc(/C=C2\SC(=O)N(Cc3ccc(F)cc3)C2=O)c1
active: Activity (U-937 [1]) | Activity (MOLT-3 [2]) | Activity (MOLT-3 [3]) Dose-dependent effect | Activity (HL-60 [4]) | Activity (MOLT-3 [5]) | Activity (U-937 [6]) | Activity (U-937 [7]) Dose-dependent effect | Activity (HL-60 [8]) | Activity (HL-60 [9]) | Activity (HL-60 [11]) | Activity (MOLT-3 [12]) | Activity (U-937 [13]) | Activity (HL-60 [14]) | Activity (HL-60 [15]) | Activity (U-937 [16]) | Activity (HL-60 [17]) | Activity (HL-60 [18]) | Activity (MOLT-3 [19]) | Activity (HL-60 [21]) | Activity (HL-60 [22]) | Activity (MOLT-3 [23]) | Activity (U-937 [24]) | Activity (HL-60 [26]) | Activity (MOLT-3 [27]) | Activity (U-937 [28]) | Activity (MOLT-3 [29]) | Activity (U-937 [31]) | Activity (MOLT-3 [32]) | Activity (U-937 [33]) | Activity (HL-60 [34]) | Activity (U-937 [35]) | Activity (HL-60 [36]) Dose-dependent effect | Activity (U-937 [37]) | Activity (HL-60 [39]) | Activity (U-937 [40]) | Activity (MOLT-3 [41]) | Activity (U-937 [42]) | Activity (MOLT-3 [43]) | Activity (U-937 [44])
12: fold change (FC) (HL-60 [30])
800 nM: IC50 (HeLa)
920 nM: IC50 (FM3A)
>5: fold change (FC) (HL-60 [38])
>10: fold change (FC) (U-937 [10])
640 nM: IC50 (MOLT-3 [3])
770 nM: IC50 (HL-60 [36])
680 nM: IC50 (CCRF-CEM) | IC50 (L1210)
inactive: Activity (MOLT-3 [20])
4: fold change (FC) (U-937 [25])
>2: fold change (FC) (MOLT-3 [45])
530 nM: IC50 (U-937 [7])
